Patent US12280125B2 (Imam Abdulrahman Bin Faisal University, priority 2022, dated 2025)

Columns and labels:
diabetic animals [1] = assay: Long-term effect on fasting blood glucose over 28 days; format: in vivo, rats; conditions: standard insulin treated group
diabetic animals [2] = assay: Non fasting blood glucose levels during 28 days; format: in vivo, rats; conditions: standard insulin group
Method: Non fasting blood glucose levels were measured for all the groups during the 28 days.

[3] = Body weight during 28 days; parameters: species or system rats; conditions: rat, in vivo
pancreatic tissue = assay: Histopathological evaluation of pancreas (H&E); format: in vivo; conditions: diabetic rats, after treatment
From the text: After treatment, the organs (liver and pancreas) of the rats were collected for histopathological evaluation. […] To collect the tissue at the end of the treatment time, animals were sacrificed under anesthetic conditions. These tissues were washed with phosphate-buffered saline (PBS) and fixed in 10% formalin (Tissue processing station-Tissue Teck VIP 5). The collected samples were properly stored under normal room temperature and were cut/sliced using a semiautomated microtome (Accu-Cut SRM system) into a few small pieces of 3-5 mm from each sample tissue and were separately embedded in paraffin blocks. These sliced tissues were mounted on the glass slides and were properly fixed on the glass slide with a hot plate. After this xylene was used to remove the paraffin from the tissues and was rehydrated by using a series of graded ethanol dilutions, 100%, 90%, and 70%. The rehydrated tissue sections were stained with hematoxylin and eosin (H&E) and were examined using light microscopy to determine the architecture and proportions of islet and acinar cells in the pancreas and hepatocytes in the liver. […] In the control group, acinar and islet cells are seen in the pancreas in normal proportions. The acinar cells are arranged in lobules and are stained darkly with prominent nuclei. The islet cells are embedded within the acinar cells and surrounded by a fine capsule (FIG. 19A). […]

liver tissue = assay: Histopathological evaluation of liver (H&E); format: in vivo; conditions: diabetic rats, after treatment
From the text: After treatment, the organs (liver and pancreas) of the rats were collected for histopathological evaluation. […] To collect the tissue at the end of the treatment time, animals were sacrificed under anesthetic conditions. These tissues were washed with phosphate-buffered saline (PBS) and fixed in 10% formalin (Tissue processing station-Tissue Teck VIP 5). The collected samples were properly stored under normal room temperature and were cut/sliced using a semiautomated microtome (Accu-Cut SRM system) into a few small pieces of 3-5 mm from each sample tissue and were separately embedded in paraffin blocks. These sliced tissues were mounted on the glass slides and were properly fixed on the glass slide with a hot plate. After this xylene was used to remove the paraffin from the tissues and was rehydrated by using a series of graded ethanol dilutions, 100%, 90%, and 70%. The rehydrated tissue sections were stained with hematoxylin and eosin (H&E) and were examined using light microscopy to determine the architecture and proportions of islet and acinar cells in the pancreas and hepatocytes in the liver. […] These cords of hepatocytes are separated by narrow intervening sinusoids lined by endothelial cells and Kupffer cells. No inflammatory cells are seen (FIG. 20A).

Which “Fasting blood glucose level, initial” value (diabetic animals [1]) does the source give for “standard insulin: standard insulin dose used as the comparison treatment group in diabetic rats” here?
The value was 433 mg/dL.

And the “Fasting blood glucose level, reduced” value (diabetic animals [1]; p=<0.001)?
The value was 371 mg/dL.

What about the “Non fasting blood glucose level at day 1” value (diabetic animals [2]) of the same substance?
Its value is 487 mg/dL.

And the “Non fasting blood glucose level at day 28” value (diabetic animals [2])?
The value was 371 mg/dL.

And the “Body weight at day 28 compared to the weight at day 21” value [3]?
The value was “significant (p=<0.001) improvement”.

And the “Improvement in body weight compared to diabetic control group” value [3]?
The value was “significant (p=<0.0001)”.

What about the Pancreatic histology (pancreatic tissue) of the same substance?
The Pancreatic histology was “the pancreatic histology is similar to that of the diabetic control”.

What about the Liver histology (liver tissue) of the same substance?
Its Liver histology is “the liver histology shows mostly a normal lobular architecture with normal cords of hepatocytes with intervening patent sinusoids with focal congestion with only occasional hepatocytes showing degenerative changes and no inflammation is seen”.
